Blank lines part the entries; values can stand above or below the molecule they belong to.
Experiments:
[1] = system: IL-1β production in human peripheral blood mononuclear cells (PBMCs); assay: PBMC Cellular Assay - IC50 Determinations (LPS-stimulated IL-1β production, ELISA); format: cell-based; details: human PBMCs stimulated overnight with 10 ng/mL LPS, mature IL-1β by ELISA
Excerpt: Further evidence that compounds of Formula I are inhibitors of ICE is provided by their ability to inhibit IL-1β production in human peripheral blood mononuclear cells (PBMCs) as described herein. PBMCs are isolated from heparinized blood by centrifugation over a ficoll cushion, then washed three times with phosphate-buffered saline. PBMCs are suspended in a medium containing RPMI 1640 with glutamine, penicillin, streptomycin, and 2% human AB serum, then plated at 10^6 cells per well in 96-well flat bottom plates. PBMCs are stimulated overnight with 10 ng/mL of lipopolysaccharide (LPS, E. coli strain 0111:B4; Calbiochem) in the presence or absence of a compound of Formula I. Medium is harvested, and the level of mature IL-1β was determined using an ELISA kit from R&D Systems. Cells were cultured for an additional 4 hours in the presence of 3-(4,5-dimethylthiazol-2-yl)-2,5-diphenyltetrazolium bromide (MTT) to determine viability.

ICE [2] = molecular target: T1, ICE (Homo sapiens, UniProt P29466); assay: ICE Colorimetric Dose-Response (IC50) Assay; format: biochemical; details: 60 minutes preincubation, 50 µM Ac-Tyr-Val-Ala-Asp-pNA, 25°C
T1 sequence (P29466 120-297 limits assumed): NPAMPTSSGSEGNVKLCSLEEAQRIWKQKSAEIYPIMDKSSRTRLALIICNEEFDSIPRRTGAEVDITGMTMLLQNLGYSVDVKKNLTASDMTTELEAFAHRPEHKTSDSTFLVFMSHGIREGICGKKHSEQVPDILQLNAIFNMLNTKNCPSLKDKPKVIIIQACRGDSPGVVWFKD
T1 sequence (P29466 317-404 limits assumed): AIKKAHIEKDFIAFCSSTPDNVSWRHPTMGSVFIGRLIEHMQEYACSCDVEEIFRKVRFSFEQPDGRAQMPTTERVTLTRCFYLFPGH
Description: (§1) Diluted inhibitor stocks are prepared by two-fold serial dilution from a primary stock whose concentration is selected (based on screening results or on prior attempts at IC50 evaluation) to achieve approximately 95% inhibition in the most concentrated well. Aliquots of each dilution are transferred to a microtitre plate in triplicate.
(§2) ICE enzyme is diluted to approximately 24 nM in HGE buffer (100 mM Hepes pH 7.5, 0.5 mM EDTA, 20% glycerol, 0.1% Bovine Serum Albumin (BSA), and activated by adding dithiothreitol (DTT) to a final concentration of 5 mM. The activated enzyme is then aliquoted into wells containing inhibitor or vehicle, and the plate is preincubated for 60 minutes at ambient temperature. Substrate (Ac-Tyr-Val-Ala-Asp-pNA) is added to each well to a final concentration of 50 µM, and plates are placed in the microtitre plate-reader thermostated to 25°C. Beginning 5 minutes after addition of substrate, absorbance (405 nm) of wells is monitored for 1 hour, and activity is calculated as the mean rate of change in absorbance during this interval.

ICE [3] = molecular target: T1, ICE; assay: ICE inhibition, Ki determination (fluorogenic substrate Ac-Tyr-Val-Ala-Asp-AMC); format: biochemical; details: 15 µM Ac-Tyr-Val-Ala-Asp-AMC, 0.5 nM enzyme, 30°C, reversible competitive model
Description: Serial dilutions of each compound of the invention are prepared using an initial 8-fold dilution of a DMSO stock into HGE (100 mM HEPES, 20% glycerol v/v, 0.5 mM EDTA), followed by seven serial 2-fold dilutions into HGE + 12.5% DMSO. Ten microliters of diluted stocks or of vehicle (HGE + 12.5% DMSO) are placed in triplicate onto a 96-well microtiter plate. Enzyme is diluted into assay buffer (HGE, 5 mM DTT, 15 µM Ac-Tyr-Val-Ala-Asp-AMC; 0.5 nM final enzyme concentration, pre-warmed to 30°C), and this reaction mixture is added to the plate at 90 µL/well. Substrate hydrolysis is monitored for 300 seconds at 30°C using 385 and 460 nm excitation and emission filters, respectively. Triplicate curves are averaged, and slopes are evaluated by linear regression. To evaluate Ki, plots of percent inhibition vs inhibitor concentration are fit by non-linear regression to a reversible, competitive model: [formula] where the competition factor is (1 + [S]/KM) = 2.

Ich-2 enzyme = molecular target: T2, Ich-2 enzyme (Homo sapiens, UniProt P49662); assay: Ich-2 Colorimetric Dose-Response (IC50) Assay; format: biochemical; details: enzyme 64 nM, 60 µM Ac-Leu-Glu-Val-Asp-pNA; read-out: ICH2 IC50 (Caspase 4)
T2 sequence (P49662 81-270 limits assumed): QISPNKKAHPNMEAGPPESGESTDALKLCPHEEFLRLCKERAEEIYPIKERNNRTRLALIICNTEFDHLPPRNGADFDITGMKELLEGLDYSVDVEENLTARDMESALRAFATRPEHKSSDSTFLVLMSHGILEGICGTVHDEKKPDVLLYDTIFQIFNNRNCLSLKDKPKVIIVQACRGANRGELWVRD
T2 sequence (P49662 290-377 limits assumed): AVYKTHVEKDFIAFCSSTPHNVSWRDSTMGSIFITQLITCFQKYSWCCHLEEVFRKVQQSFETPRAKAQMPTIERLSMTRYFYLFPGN
Description: as §1, §2
Inhibition of Ich-2 enzyme is assayed as described above for ICE, except that enzyme is used at 64 nM, and 60 µM of the Ich-2-specific substrate Ac-Leu-Glu-Val-Asp-pNA is used instead of the ICE substrate Ac-Tyr-Val-Ala-Asp-pNA.

SMILES: CCOC1OC(=O)CC1NC(=O)C(CC(=O)NCCn1cnc2ccccc21)C(C)C (stereo not shown) [Example 35, N^4-(2-Benzoimidazol-1-yl-ethyl)-N^1-(2-ethoxy-5-oxo-tetrahydro-furan-3-yl)-2-isopropyl-succinamide]
- IC50 [1]: 5.5 µM
- IC50 (ICE [2]): 1060 nM
- Ki (ICE [3]): 51.1 nM

SMILES: CCOC1OC(=O)CC1NC(=O)C(CC(=O)NCCn1nnc2ccccc21)C(C)C (stereo not shown) [Example 41, N^4-(2-Benzotriazol-1-yl-ethyl)-N^1-(2-ethoxy-5-oxo-tetrahydro-furan-3-yl)-2-isopropyl-succinamide]
- IC50 [1]: 17.5 µM
- IC50 (ICE [2]): 13000 nM
- Ki (ICE [3]): 409 nM

SMILES: CC(C)C(CC(=O)NCCOc1ccccc1)C(=O)NC(CC(=O)O)C(=O)CNS(=O)(=O)CC12CCC(CC1=O)C2(C)C (stereo not shown) [Example 9, 5-(7,7-Dimethyl-2-oxo-bicyclo[2.2.1]hept-1-ylmethanesulfonylamino)-3-{3-methyl-2-[(2-phenoxy-ethylcarbamoyl)-methyl]-butyrylamino}-4-oxo-pentanoic acid]
- IC50 [1]: 2.1 µM
- IC50 (ICE [2]): 53 nM
- IC50 (Ich-2 enzyme): 4.22 µM
- Ki (ICE [3]): 23.4 nM

SMILES: CCOC1OC(=O)CC1NC(=O)C(CC(=O)NCCOc1ccccc1)C(C)C (stereo not shown) [Example 39, N^1-(2-Ethoxy-5-oxo-tetrahydro-furan-3-yl)-2-isopropyl-N^4-(2-phenoxyethyl)-succinamide]
- IC50 [1]: 5 µM
- IC50 (ICE [2]): 13200 nM
- Ki (ICE [3]): 446 nM

SMILES: CCOC1OC(=O)CC1NC(=O)C(CC(=O)NCCc1c[nH]c2cc(F)ccc12)C(C)C (stereo not shown) [Example 44, N^1-(2-Ethoxy-5-oxo-tetrahydro-furan-3-yl)-N^4-[2-(6-fluoro-1H-indol-3-yl)-ethyl]-2-isopropyl-succinamide]
- IC50 [1]: 2.5 µM
- IC50 (ICE [2]): 1220 nM
- Ki (ICE [3]): 47.5 nM

SMILES: CC(C)[C@H](CC(=O)NCCOc1ccccc1)C(=O)NC(C=O)CC(=O)O (stereo partly shown) [Example 8]
- IC50 [1]: 3.75 µM
- IC50 (ICE [2]): 540 nM
- Ki (ICE [3]): 15 nM

SMILES: CCOC1OC(=O)CC1NC(=O)C(CC(=O)NCCCc1cc(OC)c(OC)c(OC)c1)C(C)C (stereo not shown) [Example 47, N^1-(2-Ethoxy-5-oxo-tetrahydro-furan-3-yl)-2-isopropyl-N^4-[3-(3,4,5-trimethoxy-phenyl)-propyl]-succinamide]
- IC50 [1]: 11 µM
- IC50 (ICE [2]): 112000 nM
- Ki (ICE [3]): 1930 nM

SMILES: CCOC1OC(=O)CC1NC(=O)C(CC(=O)NCCNc1ccccc1)C(C)C (stereo not shown) [Example 43, N^1-(2-Ethoxy-5-oxo-tetrahydro-furan-3-yl)-2-isopropyl-N^4-(2-phenylamino-ethyl)-succinamide]
- IC50 [1]: 7.5 µM
- IC50 (ICE [2]): 2280 nM
- Ki (ICE [3]): 98.1 nM

SMILES: CCOC1OC(=O)CC1NC(=O)C(CC(=O)NCCn1ncc2ccccc21)C(C)C (stereo not shown) [Example 42, N^1-(2-Ethoxy-5-oxo-tetrahydro-furan-3-yl)-N^4-(2-indazol-1-yl-ethyl)-2-isopropyl-succinamide]
- IC50 [1]: 7.5 µM
- IC50 (ICE [2]): 1730 nM
- Ki (ICE [3]): 191 nM

SMILES: CC(C)C(CC(=O)N(C)CCOc1ccccc1)C(=O)NC(C=O)CC(=O)O (stereo not shown) [Example 22, 3-(3-Methyl-2-{[methyl-(2-phenoxy-ethyl)-carbamoyl]-methyl}-butyrylamino)-4-oxo-butyric acid]
- IC50 [1]: 19 µM
- IC50 (ICE [2]): 1670 nM
- Ki (ICE [3]): 133 nM

SMILES: CC(C)C(CC(=O)NCCCc1ccccc1)C(=O)NC(CC(=O)O)C(=O)COc1cc2ccccc2cc1-c1ncc[nH]1 (stereo not shown) [Example 14, 5-[3-(1H-Imidazol-2-yl)-naphthalen-2-yloxy]-3-{3-methyl-2-[(3-phenyl-propylcarbamoyl)-methyl]-butyrylamino}-4-oxo-pentanoic acid]
- IC50 [1]: 19 µM
- IC50 (ICE [2]): 8.7 nM
- Ki (ICE [3]): 107 nM

SMILES: CCOC1OC(=O)CC1NC(=O)C(CC(=O)NCCc1c[nH]c2cc(OC)ccc12)C(C)C (stereo not shown) [Example 40, N^1-(2-Ethoxy-5-oxo-tetrahydro-furan-3-yl)-2-isopropyl-N^4-[2-(6-methoxy-1H-indol-3-yl)-ethyl]-succinamide]
- IC50 [1]: 2.9 µM
- IC50 (ICE [2]): 1150 nM
- Ki (ICE [3]): 35.4 nM

The next lines start with results.

- IC50 (ICE [2]): 924 nM
- Ki (ICE [3]): 53.8 nM
SMILES: CCOC1OC(=O)CC1NC(=O)C(CC(=O)NCCn1ccc2ccccc21)C(C)C (stereo not shown) [Example 50, N^1-(2-Ethoxy-5-oxo-tetrahydro-furan-3-yl)-N^4-(2-indol-1-yl-ethyl)-2-isopropyl-succinamide]
- IC50 [1]: 2 µM

- Ki (ICE [3]): > 100000 nM
SMILES: CCOC(=O)CC(C#N)NC(=O)C(CC(=O)NCCOc1ccccc1)C(C)C (stereo not shown) [Example 64, 3-Cyano-3-{3-methyl-2-[(2-phenoxy-ethylcarbamoyl)-methyl]-butyrylamino}-propionic acid ethyl ester]
- IC50 [1]: > 100 µM

- IC50 (ICE [2]): 59900 nM
- Ki (ICE [3]): 1010 nM
SMILES: CCOC1OC(=O)CC1NC(=O)C(CC(=O)NCCc1ccccc1)C(C)C (stereo not shown) [Example 48, N^1-(2-Ethoxy-5-oxo-tetrahydro-furan-3-yl)-2-isopropyl-N^4-[2-(phenyl)-ethyl]-succinamide]
- IC50 [1]: 13.5 µM

- IC50 (ICE [2]): 15000 nM
- Ki (ICE [3]): 259 nM
SMILES: CCOC1OC(=O)CC1NC(=O)[C@@H](CC(=O)NCCCc1ccccc1)C(C)C (stereo partly shown) [Example 51, N^1-(2-Ethoxy-5-oxo-tetrahydro-furan-3-yl)-2-isopropyl-N^4-[4-(phenyl)-propyl]-succinamide]
- IC50 [1]: 16.2 µM

- IC50 (ICE [2]): 123000 nM
- Ki (ICE [3]): 2150 nM
SMILES: CCOC1OC(=O)CC1NC(=O)C(CC(=O)NCCCCc1ccccc1)C(C)C (stereo not shown) [Example 49, N^1-(2-Ethoxy-5-oxo-tetrahydro-furan-3-yl)-2-isopropyl-N^4-[4-(phenyl)-butyl]-succinamide]

- IC50 (ICE [2]): 2560 nM
- Ki (ICE [3]): 274 nM
SMILES: COc1cc(CCCNC(=O)C[C@H](C(=O)NC(C=O)CC(=O)O)C(C)C)cc(OC)c1OC (stereo partly shown) [Example 62, 3-(3-methyl-2-{[3-(3,4,5-trimethoxy-pheny)-propylcarbamoyl]-methyl}-butyrylamino)-4-oxo-butyric acid]
- IC50 [1]: 23 µM

- Ki (ICE [3]): 107000 nM
SMILES: CC(C)C(CC(=O)NCCOc1ccccc1)C(=O)NC(C#N)CC(=O)O (stereo not shown) [Example 65, 3-Cyano-3-{3-methyl-2-[(2-phenoxy-ethylcarbamoyl)-methyl]-butyrylamino}-propionic acid]
- IC50 [1]: > 100 µM

- IC50 (ICE [2]): 197000 nM
- Ki (ICE [3]): 6920 nM
SMILES: CCOC(=O)CC(C=O)NC(=O)C(CC(=O)NCCOc1ccccc1)C(C)C (stereo not shown) [Example 63, 3-{3-Methyl-2-[(2-phenoxy-ethylcarbamoyl)-methyl]-butyrylamino}-4-oxo-butyric acid ethyl ester]
- IC50 [1]: 14.5 µM

- IC50 (ICE [2]): 486 nM
- Ki (ICE [3]): 18.5 nM
SMILES: CCOC1OC(=O)CC1NC(=O)C(CC(=O)NCCc1c[nH]c2ccc(F)cc12)C(C)C (stereo not shown) [Example 52, N^1-(2-Ethoxy-5-oxo-tetrahydro-furan-3-yl)-N^4-[2-(5-fluoro-1H-indol-3-yl)-ethyl]-2-isopropyl-succinamide]
- IC50 [1]: 0.75 µM
